Here are results for two molecules from US11857570B2, “Natural composition for use in gynecology” (Organicare LLC, priority 2017, dated 2024).

In data set [1] the test system is transformed human vaginal epithelial cells (Episkin). As to the kind of experiment: Cell survival test (MTT) with three-dimensional vaginal epithelium reconstructed in vitro. Format: cell-based. The protocol: The potential skin irritation on the vaginal epithelium was evaluated in vitro by means of a cytotoxicity assay: cell survival test with three-dimensional vaginal epithelium reconstructed in vitro (MTT test). The three-dimensional cell model used in the test consists of 0.5 cm^2 diameter units of cultures of transformed human vaginal epithelial cells, maintained for 5 days in a chemically defined culture medium and in contact with air on inert polycarbonate filters. The model was purchased from Episkin® (Lyons, lot 16-HVE-015).
Sodium lauryl sulphate (SLS) dissolved at 0.5% by weight in a phosphate buffer (Euroclone) was used as a positive control. The phosphate buffer was used on its own as a negative control. Exposure took place for 1 and 6 hours at about 37° C., 5% CO2. At the end of exposure, the epithelium was washed with phosphate buffer. The epithelium was incubated for 3 h at 37° C. with a 1 mg/ml solution of MTT (3-[4,5-dimethylthiazol-2-yl]-2,5-diphenyltetrazoliumbromide).
The solution was subsequently removed and replaced with isopropanol, with […]
successive hours of incubation at room temperature. 2 aliquots of each epithelium were transferred into a 96-well plate for the absorbance reading, which was carried out at a wavelength of 570 nm with a Tecan Sunrise remote colorimeter, equipped with a plate reader.
Through the creation of a dose-response curve, the cytotoxicity data obtained with the MTT test (Table 5) make it possible to determine the theoretical value of ET50, that is, the time in minutes that induces a 50% reduction in cell viability in the epithelium compared to untreatedcells.

The test system of a further data set is bacterial vaginosis. The following applies: at 3 months; cited from earlier work.

As for `CCCCCCCCCCCCOS(=O)(=O)[O-].[Na+]` [Positive control, Sodium lauryl sulphate], in data set [1] (MTT, 1 h exposure, reconstructed human vaginal epithelium), the “% mean cell viability 1 h treatment” value came out at 8.26%. In addition, the “% mean cell viability 6 h treatment” value in data set [1] (MTT, 6 h exposure, reconstructed human vaginal epithelium) is reported as 6.54%. The molecule further came in with an ET50 in data set [1] (time that induces a 50% reduction in cell viability compared to untreated cells) of 32.70 min.

Regarding `Cc1ncc([N+](=O)[O-])n1CCO` [metronidazole], the risk of relapse in the data set with bacterial vaginosis is 33 % of women.
